Measurements published in the NIST ThermoML archive (doi:10.1021/je700492k).

Assay: excess molar enthalpy (molar enthalpy of mixing); xn = mol fraction of the nth substance listed
Settings: Liquid, Flow calorimetry

CC(=O)CC(C)=O [2,4-pentanedione] + CCO
excess molar enthalpy [kcal/mol]
Settings	298.15 K	313.15 K	328.15 K
100 kPa, x1 = 0.0496	0.0592	0.0668	0.0752
100 kPa, x1 = 0.0992	0.109	0.124	0.142
100 kPa, x1 = 0.1496	0.156	0.175	0.2
100 kPa, x1 = 0.1992	0.193	0.219	0.25
100 kPa, x1 = 0.2491	0.225	0.255	0.29
100 kPa, x1 = 0.2988	0.251	0.283	0.324
100 kPa, x1 = 0.3482	0.273	0.309	0.353
100 kPa, x1 = 0.3988	0.29	0.327	0.373
100 kPa, x1 = 0.4484	0.301	0.34	0.387
100 kPa, x1 = 0.4988	0.309	0.348	0.395
100 kPa, x1 = 0.5476	0.312	0.349	0.396
100 kPa, x1 = 0.5991	0.309	0.345	0.39
100 kPa, x1 = 0.6484	0.3	0.334	0.377
100 kPa, x1 = 0.6976	0.286	0.316	0.355
100 kPa, x1 = 0.7494	0.264	0.29	0.324
100 kPa, x1 = 0.798	0.236	0.256	0.284
100 kPa, x1 = 0.849	0.196	0.211	0.233
100 kPa, x1 = 0.8992	0.146	0.154	0.169
100 kPa, x1 = 0.9485	0.0824	0.0848	0.0934
100 kPa, x1 = 0.9688	0.0518	0.0529	0.0585
10000 kPa, x1 = 0.0496	0.0575	0.0658	0.0749
10000 kPa, x1 = 0.0992	0.109	0.124	0.139
10000 kPa, x1 = 0.1496	0.153	0.174	0.198
10000 kPa, x1 = 0.1992	0.191	0.216	0.246
10000 kPa, x1 = 0.2491	0.223	0.253	0.287
10000 kPa, x1 = 0.2988	0.249	0.282	0.321
10000 kPa, x1 = 0.3482	0.27	0.306	0.348
10000 kPa, x1 = 0.3988	0.287	0.325	0.369
10000 kPa, x1 = 0.4484	0.299	0.338	0.382
10000 kPa, x1 = 0.4988	0.307	0.345	0.391
10000 kPa, x1 = 0.5476	0.309	0.347	0.391
10000 kPa, x1 = 0.5991	0.306	0.342	0.384
10000 kPa, x1 = 0.6484	0.298	0.332	0.371
10000 kPa, x1 = 0.6976	0.284	0.315	0.351
10000 kPa, x1 = 0.7494	0.262	0.289	0.317
10000 kPa, x1 = 0.798	0.234	0.256	0.276
10000 kPa, x1 = 0.849	0.195	0.211	0.224
10000 kPa, x1 = 0.8992	0.143	0.153	0.163
10000 kPa, x1 = 0.9485	0.0813	0.084	0.0911
10000 kPa, x1 = 0.9688	0.0514	0.0524	0.0568

CC(=O)CC(C)=O [2,4-pentanedione] + CO
excess molar enthalpy [kcal/mol]
Settings	298.15 K	313.15 K	328.15 K
100 kPa, x1 = 0.0502	0.0494	0.0583	0.0658
100 kPa, x1 = 0.0995	0.0896	0.107	0.122
100 kPa, x1 = 0.1494	0.125	0.15	0.172
100 kPa, x1 = 0.1998	0.154	0.187	0.215
100 kPa, x1 = 0.2496	0.178	0.217	0.251
100 kPa, x1 = 0.3006	0.199	0.243	0.282
100 kPa, x1 = 0.3504	0.215	0.263	0.307
100 kPa, x1 = 0.3995	0.227	0.278	0.325
100 kPa, x1 = 0.4492	0.237	0.289	0.338
100 kPa, x1 = 0.499	0.242	0.295	0.346
100 kPa, x1 = 0.5509	0.244	0.296	0.348
100 kPa, x1 = 0.5989	0.241	0.293	0.342
100 kPa, x1 = 0.6509	0.233	0.284	0.33
100 kPa, x1 = 0.7006	0.221	0.269	0.312
100 kPa, x1 = 0.7507	0.204	0.248	0.286
100 kPa, x1 = 0.8006	0.179	0.219	0.25
100 kPa, x1 = 0.85	0.147	0.183	0.205
100 kPa, x1 = 0.8983	0.109	0.136	0.152
100 kPa, x1 = 0.95	0.057	0.0741	0.0828
10000 kPa, x1 = 0.0501	0.0479	0.058	0.0654
10000 kPa, x1 = 0.0994	0.0879	0.107	0.121
10000 kPa, x1 = 0.1493	0.123	0.15	0.171
10000 kPa, x1 = 0.1997	0.152	0.187	0.214
10000 kPa, x1 = 0.2494	0.176	0.217	0.25
10000 kPa, x1 = 0.3004	0.196	0.243	0.28
10000 kPa, x1 = 0.3502	0.213	0.263	0.304
10000 kPa, x1 = 0.3993	0.225	0.277	0.323
10000 kPa, x1 = 0.449	0.235	0.289	0.335
10000 kPa, x1 = 0.4988	0.24	0.294	0.343
10000 kPa, x1 = 0.5507	0.242	0.296	0.345
10000 kPa, x1 = 0.5987	0.24	0.292	0.34
10000 kPa, x1 = 0.6507	0.233	0.283	0.328
10000 kPa, x1 = 0.7005	0.221	0.269	0.308
10000 kPa, x1 = 0.7505	0.204	0.248	0.282
10000 kPa, x1 = 0.8004	0.179	0.219	0.246
10000 kPa, x1 = 0.8498	0.147	0.182	0.203
10000 kPa, x1 = 0.8982	0.108	0.135	0.151
10000 kPa, x1 = 0.9499	0.0569	0.0725	0.0819
